Earlier results on 26 molecules are cited in patent publication US7006921B1, “Method for accurately estimating pKa of molecules using atom type definitions and partial least squares” (priority 1999, dated 2006).

The conditions of one series: first or only pKa.
On to `O=C(O)c1cnn[nH]1` [1,2,3-triazole-4-carboxylic acid, 1,2,3-triazole-4-carboxylic acid], for which the “Measured (pKa)” value is 3.22.
Consider `NCCSCCSCCN` [1,8-diamino-3,6-dithiaoctane, 1,8-diamino-3,6-dithiaoctane], for which the “Measured (pKa)” value is listed as 9.47.
As to `CC(C)NCC(O)C1CCC(O)CC1` (stereo not shown) [1-(4′-hydroxycyclohexyl)-2-(isopropylamino)-ethanol], the “Measured (pKa)” value was 10.23.
`CC(=O)OCCN(C)C` [2-(dimethylamino)-ethyl acetate, 2-(dimethylamino)-ethyl acetate]: the “Measured (pKa)” value was 8.35.
Regarding `CNCC(N)=O` [2-(methylamino)-acetamide, 2-(methylamino)-acetamide], the “Measured (pKa)” value is 8.31.
Consider `CC(=O)C(CC(=O)O)C(=O)O` (stereo not shown) [2-acetylbutanedioic acid, 2-acetylbutanedioic acid], for which the “Measured (pKa)” value is listed as 2.86.
As for `NC1CCCCCC1O` (stereo not shown) [2-aminocycloheptanol], the “Measured (pKa)” value was 9.25.
For the molecule `CC(=O)c1cccnc1` [3-acetylpyridine], the “Measured (pKa)” value is given as 3.26.
With `COc1cncc(Br)c1` [3-bromo-5-methoxypyridine, 3-bromo-5-methoxypyridine], the “Measured (pKa)” value was 2.60.
On to `Oc1cccnc1` [3-hydroxypyridine], for which the “Measured (pKa)” value is listed as 4.80.
With `Nc1cc(Cl)ncn1` [4-amino-6-chloropyrimidine, 4-amino-6-chloropyrimidine], the “Measured (pKa)” value is 2.10.
Consider `Nc1ccnnc1` [4-aminopyridazine], for which the “Measured (pKa)” value is reported as 6.65.
In the case of `O=C(O)c1ccc(Br)cc1C(=O)O` [4-bromo-1,2-benzenedicarboxylic acid, 4-bromo-1,2-benzenedicarboxylic acid], the “Measured (pKa)” value was 2.5.
`Nc1ccc(Br)c([N+](=O)[O-])c1` [4-bromo-3-nitroaniline, 4-bromo-3-nitroaniline]: the “Measured (pKa)” value is reported as 1.80.
For `O=C(O)c1cc(Br)c[nH]1` [4-bromopyrrol-2-carboxylic acid, 4-bromopyrrol-2-carboxylic acid], the “Measured (pKa)” value was 4.06.
For the molecule `Cc1cc(O)cc(C)c1Cl` [4-chloro-3,5-dimethylphenol, 4-chloro-3,5-dimethylphenol], the “Measured (pKa)” value was 9.71.
Take `COc1cc(C(=O)O)cc(OC)c1O` [4-hydroxy-3,5-dimethoxybenzoic acid, 4-hydroxy-3,5-dimethoxybenzoic acid]: the “Measured (pKa)” value is on record as 4.34.
For the molecule `NCCNCCO` [5-amino-3-azapentanol, 5-amino-3-azapentanol], the “Measured (pKa)” value is on record as 9.82.
`Oc1c(O)c(O)c(O)c(O)c1O` [Benzenehexol]: the “Measured (pKa)” value is recorded as 9.0.
With `O=C(O)c1coc(C(=O)O)c1` [Furan-2,4-dicarboxylic acid, Furan-2,4-dicarboxylic acid], the “Measured (pKa)” value is listed as 2.63.
For the molecule `C1N2CN3CN1CN(C2)C3` [Hexamethylenetetramine], the “Measured (pKa)” value is on record as 6.2.
For the molecule `CSCC[C@H](N)C(=O)O` [Methionine], the “Measured (pKa)” value is reported as 2.17.
In the case of `CC#CCN(C)C` [N,N-dimethyl-2-butyn-1-amine, N,N-dimethyl-2-butyn-1-amine], the “Measured (pKa)” value is given as 8.28.
As to `O=C(O)c1cc[nH]n1` [Pyrazole-3-carboxlylic acid, Pyrazole-3-carboxlylic acid], the “Measured (pKa)” value was 3.74.
With `Oc1cccc(O)c1O` [Pyrogallol], the “Measured (pKa)” value is on record as 9.12.
Take `c1c[nH]cn1` [imidazole]: the “Measured (pKa)” value is listed as 6.04.

Still in this series, the particulars now being: second value of the cell, pKa2.
`Oc1cccnc1` [3-hydroxypyridine]: the “Measured (pKa2)” value is reported as 8.74.
Turning to `CSCC[C@H](N)C(=O)O` [Methionine], the “Measured (pKa2)” value is 9.20.
